{"source": "patent US12637469B2", "about": "“1H-pyrazole derivative and application thereof as dual target inhibitor of Syk and VEGFR2” (Ocumension Therapeutics (Suzhou) Co., Ltd., priority 2020, dated 2026)", "assay_in_all_cases": "Eurofins KinaseProfiler off-target kinase inhibition", "assay_type_in_all_cases": "biochemical", "key": {"[1]": {"biological_target": "T1, BTK(h) (Homo sapiens, UniProt Q06187)", "T1 construct": "purchased Eurofins (KinaseProfiler platform)", "protocol": "(§1) In order to investigate the specificity of the inhibition of the target by the compound, in this study, the activity and selectivity of test compound 1 on the off-target kinases in related pathways were tested on the Eurofins kinaseProfiler™ platform, and compound screening and analysis were conducted using IC50 value as the indicator.\n(§2) Compound 1 was detected for each selected kinase using the standard Eurofins Kinase Profiler™ protocol, which followed the relevant standard operating procedures. The IC50 values of the inhibitory activity of the test compound 1 on 67 kinases including Abl(h), B-Raf(h), BTK(h) and JAK(h) were analyzed."}, "[2]": {"biological_target": "T2, TrkA(h) (Homo sapiens, UniProt P04629)", "T2 construct": "purchased Eurofins (KinaseProfiler platform)", "protocol": "as §1, §2"}, "[3]": {"biological_target": "T3, cSRC(h) (Homo sapiens, UniProt P12931)", "T3 construct": "purchased Eurofins (KinaseProfiler platform)", "protocol": "as §1, §2"}, "[4]": {"biological_target": "T4, Abl(h) (Homo sapiens, UniProt P00519)", "T4 construct": "purchased Eurofins (KinaseProfiler platform)", "protocol": "as §1, §2"}, "[5]": {"biological_target": "T5, CHK1(h) (Homo sapiens, UniProt O14757)", "T5 construct": "purchased Eurofins (KinaseProfiler platform)", "protocol": "as §1, §2"}, "[6]": {"biological_target": "T6, Flt3(h) (Homo sapiens, UniProt P36888)", "T6 construct": "purchased Eurofins (KinaseProfiler platform)", "protocol": "as §1, §2"}, "[7]": {"biological_target": "T7, PKBα(h) (Homo sapiens, UniProt P31749)", "T7 construct": "purchased Eurofins (KinaseProfiler platform)", "protocol": "as §1, §2"}, "[8]": {"biological_target": "T8, B-Raf(h) (Homo sapiens, UniProt P15056)", "T8 construct": "purchased Eurofins (KinaseProfiler platform)", "protocol": "as §1, §2"}, "[9]": {"biological_target": "T9, Ros(h) (Homo sapiens, UniProt P08922)", "T9 construct": "purchased Eurofins (KinaseProfiler platform)", "T9 sequence (P08922 28-2347)": "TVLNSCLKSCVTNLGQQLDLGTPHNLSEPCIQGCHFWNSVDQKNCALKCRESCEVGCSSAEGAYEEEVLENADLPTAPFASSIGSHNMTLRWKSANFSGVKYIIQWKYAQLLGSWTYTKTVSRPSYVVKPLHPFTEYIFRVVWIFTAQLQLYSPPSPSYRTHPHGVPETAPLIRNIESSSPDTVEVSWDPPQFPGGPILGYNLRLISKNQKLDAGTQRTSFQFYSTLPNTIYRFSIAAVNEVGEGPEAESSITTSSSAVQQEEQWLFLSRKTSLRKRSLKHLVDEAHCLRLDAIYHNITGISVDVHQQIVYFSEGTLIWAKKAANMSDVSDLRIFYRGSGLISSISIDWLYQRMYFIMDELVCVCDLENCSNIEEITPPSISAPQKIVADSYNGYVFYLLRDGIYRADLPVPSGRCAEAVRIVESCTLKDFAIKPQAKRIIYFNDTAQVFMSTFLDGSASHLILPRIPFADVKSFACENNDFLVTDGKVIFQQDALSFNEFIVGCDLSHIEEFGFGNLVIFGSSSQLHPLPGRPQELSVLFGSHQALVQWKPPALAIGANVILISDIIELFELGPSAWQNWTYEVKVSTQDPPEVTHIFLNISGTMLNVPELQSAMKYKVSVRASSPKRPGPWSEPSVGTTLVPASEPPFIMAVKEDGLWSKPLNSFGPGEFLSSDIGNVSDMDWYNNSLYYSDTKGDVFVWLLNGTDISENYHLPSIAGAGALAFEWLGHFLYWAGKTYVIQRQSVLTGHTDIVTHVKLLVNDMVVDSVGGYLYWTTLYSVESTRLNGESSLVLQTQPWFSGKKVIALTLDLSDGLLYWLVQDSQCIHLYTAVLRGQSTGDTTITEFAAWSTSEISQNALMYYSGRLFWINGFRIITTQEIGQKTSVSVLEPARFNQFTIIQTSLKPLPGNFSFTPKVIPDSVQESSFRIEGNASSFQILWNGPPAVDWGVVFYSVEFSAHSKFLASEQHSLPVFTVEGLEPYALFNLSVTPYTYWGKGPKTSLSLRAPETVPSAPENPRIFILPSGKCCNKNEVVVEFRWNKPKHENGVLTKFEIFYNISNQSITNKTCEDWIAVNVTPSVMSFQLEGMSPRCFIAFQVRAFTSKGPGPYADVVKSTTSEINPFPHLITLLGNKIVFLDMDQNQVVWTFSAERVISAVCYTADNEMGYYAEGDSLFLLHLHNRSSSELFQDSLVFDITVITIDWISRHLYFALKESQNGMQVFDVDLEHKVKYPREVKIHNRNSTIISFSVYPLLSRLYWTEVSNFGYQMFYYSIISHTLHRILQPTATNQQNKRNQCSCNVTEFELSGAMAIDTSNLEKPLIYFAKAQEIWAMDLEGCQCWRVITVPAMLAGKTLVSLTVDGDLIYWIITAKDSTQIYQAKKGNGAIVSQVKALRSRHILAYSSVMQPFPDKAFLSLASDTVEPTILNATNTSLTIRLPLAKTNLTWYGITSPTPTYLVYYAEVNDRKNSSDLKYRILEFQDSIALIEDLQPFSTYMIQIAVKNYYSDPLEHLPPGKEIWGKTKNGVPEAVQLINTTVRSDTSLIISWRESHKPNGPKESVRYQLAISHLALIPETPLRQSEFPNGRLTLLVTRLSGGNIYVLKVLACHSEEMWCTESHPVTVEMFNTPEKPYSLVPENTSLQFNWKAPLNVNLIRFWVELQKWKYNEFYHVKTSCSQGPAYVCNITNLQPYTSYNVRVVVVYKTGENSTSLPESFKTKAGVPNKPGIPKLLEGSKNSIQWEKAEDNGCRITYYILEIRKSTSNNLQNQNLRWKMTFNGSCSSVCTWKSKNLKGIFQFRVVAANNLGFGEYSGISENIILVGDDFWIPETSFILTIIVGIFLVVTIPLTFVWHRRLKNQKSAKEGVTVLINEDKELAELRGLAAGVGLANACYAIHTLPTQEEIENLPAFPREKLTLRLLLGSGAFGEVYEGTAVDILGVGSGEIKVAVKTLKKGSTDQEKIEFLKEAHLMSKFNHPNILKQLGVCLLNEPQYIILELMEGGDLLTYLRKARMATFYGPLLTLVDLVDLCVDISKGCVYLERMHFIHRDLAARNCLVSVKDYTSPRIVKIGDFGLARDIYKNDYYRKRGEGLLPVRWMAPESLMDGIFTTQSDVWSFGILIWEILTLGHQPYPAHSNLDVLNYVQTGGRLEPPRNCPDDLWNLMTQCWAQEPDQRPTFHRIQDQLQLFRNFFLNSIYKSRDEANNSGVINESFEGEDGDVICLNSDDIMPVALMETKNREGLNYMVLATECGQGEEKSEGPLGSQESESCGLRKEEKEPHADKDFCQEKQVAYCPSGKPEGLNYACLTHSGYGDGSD", "protocol": "as §1, §2"}, "[10]": {"biological_target": "T10, ACTR2(h) (Homo sapiens, UniProt P27037)", "T10 construct": "purchased Eurofins (KinaseProfiler platform)", "protocol": "as §1, §2"}, "[11]": {"biological_target": "T11, Rse(h) (Homo sapiens, UniProt Q06418)", "T11 construct": "purchased Eurofins (KinaseProfiler platform)", "protocol": "as §1, §2"}, "[12]": {"biological_target": "T12, CDK4/cyclinD3(h) (Homo sapiens, UniProt P11802)", "T12 construct": "purchased Eurofins (KinaseProfiler platform)", "protocol": "as §1, §2"}, "[13]": {"biological_target": "T13, FGFR2(h) (Homo sapiens, UniProt P21802)", "T13 construct": "purchased Eurofins (KinaseProfiler service)", "protocol": "as §1, §2"}, "[14]": {"biological_target": "T14, Flt1(h) (Homo sapiens, UniProt P17948)", "T14 construct": "purchased Eurofins (KinaseProfiler platform)", "protocol": "as §1, §2"}, "[15]": {"biological_target": "T15, MKK6(h) (Homo sapiens, UniProt P52564)", "T15 construct": "purchased Eurofins (KinaseProfiler service)", "protocol": "as §1, §2"}, "[16]": {"biological_target": "T16, MAP4K4(h) (Homo sapiens, UniProt O95819)", "T16 construct": "purchased Eurofins (KinaseProfiler service)", "protocol": "as §1, §2"}, "[17]": {"biological_target": "T17, c-kit(h) (Homo sapiens, UniProt P10721)", "T17 construct": "purchased Eurofins (KinaseProfiler platform)", "protocol": "as §1, §2"}, "[18]": {"biological_target": "T18, mTOR/FKBP12(h) (Homo sapiens, UniProt P42345)", "T18 construct": "purchased Eurofins (KinaseProfiler service)", "protocol": "as §1, §2"}, "[19]": {"biological_target": "T19, Src(1-530)(h) (Homo sapiens, UniProt P12931)", "T19 construct": "Src(1-530)(h); purchased Eurofins (KinaseProfiler platform)", "T19 sequence (P12931 1-530)": "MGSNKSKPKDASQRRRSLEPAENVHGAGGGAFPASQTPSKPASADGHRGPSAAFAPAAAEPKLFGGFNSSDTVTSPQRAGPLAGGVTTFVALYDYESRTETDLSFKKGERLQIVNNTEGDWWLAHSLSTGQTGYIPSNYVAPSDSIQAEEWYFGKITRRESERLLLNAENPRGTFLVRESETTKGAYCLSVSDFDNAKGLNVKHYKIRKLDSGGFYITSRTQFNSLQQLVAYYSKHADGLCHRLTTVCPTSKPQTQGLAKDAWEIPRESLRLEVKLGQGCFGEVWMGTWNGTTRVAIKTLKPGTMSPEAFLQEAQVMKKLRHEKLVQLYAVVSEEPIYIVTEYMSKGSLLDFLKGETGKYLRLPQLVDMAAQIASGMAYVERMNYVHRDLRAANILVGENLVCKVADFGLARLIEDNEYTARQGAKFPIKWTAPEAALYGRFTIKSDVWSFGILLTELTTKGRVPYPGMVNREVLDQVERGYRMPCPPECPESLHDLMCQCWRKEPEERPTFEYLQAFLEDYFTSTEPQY", "protocol": "as §1, §2"}, "[20]": {"biological_target": "T20, SAPK3(h) (Homo sapiens, UniProt P53778)", "T20 construct": "purchased Eurofins (KinaseProfiler platform)", "protocol": "as §1, §2"}, "[21]": {"biological_target": "T21, IKKα(h) (Homo sapiens, UniProt O15111)", "T21 construct": "purchased Eurofins (KinaseProfiler platform)", "protocol": "as §1, §2"}, "[22]": {"biological_target": "T22, CSK(h) (Homo sapiens, UniProt P41240)", "T22 construct": "purchased Eurofins (KinaseProfiler platform)", "protocol": "as §1, §2"}, "[23]": {"biological_target": "T23, Tie2(h) (Homo sapiens, UniProt Q02763)", "T23 construct": "purchased Eurofins (KinaseProfiler platform)", "protocol": "as §1, §2"}, "[24]": {"biological_target": "T24, mTOR(h) (Homo sapiens, UniProt P42345)", "T24 construct": "purchased Eurofins (KinaseProfiler service)", "protocol": "as §1, §2"}, "[25]": {"biological_target": "T25, CK1ε(h) (Homo sapiens, UniProt P49674)", "T25 construct": "purchased Eurofins (KinaseProfiler platform)", "protocol": "as §1, §2"}, "[26]": {"biological_target": "T26, MAPK1(h) (Homo sapiens, UniProt P27361)", "T26 construct": "purchased Eurofins (KinaseProfiler service)", "protocol": "as §1, §2"}, "[27]": {"biological_target": "T27, ErbB2(h) (Homo sapiens, UniProt P04626)", "T27 construct": "purchased Eurofins (KinaseProfiler platform)", "protocol": "as §1, §2"}, "[28]": {"biological_target": "T28, TYK2(h) (Homo sapiens, UniProt P29597)", "T28 construct": "purchased Eurofins (KinaseProfiler platform)", "protocol": "as §1, §2"}, "[29]": {"biological_target": "T29, CDK6/cyclinD3(h) (Homo sapiens, UniProt Q00534)", "T29 construct": "purchased Eurofins (KinaseProfiler platform)", "protocol": "as §1, §2"}, "[30]": {"biological_target": "T30, JAK1(h) (Homo sapiens, UniProt P23458)", "T30 construct": "purchased Eurofins (KinaseProfiler service)", "protocol": "as §1, §2"}, "[31]": {"biological_target": "T31, FAK(h) (Homo sapiens, UniProt Q05397)", "T31 construct": "purchased Eurofins (KinaseProfiler service)", "protocol": "as §1, §2"}, "[32]": {"biological_target": "T32, MEK2(h) (Homo sapiens, UniProt P36507)", "T32 construct": "purchased Eurofins (KinaseProfiler service)", "protocol": "as §1, §2"}, "[33]": {"biological_target": "T33, Src(T341M)(h) (Homo sapiens, UniProt P12931, T341M)", "T33 construct": "purchased Eurofins (KinaseProfiler platform)", "protocol": "as §1, §2"}, "[34]": {"biological_target": "T34, JNK3(h) (Homo sapiens, UniProt P53779)", "T34 construct": "purchased Eurofins (KinaseProfiler service)", "T34 sequence (P53779 whole entry)": "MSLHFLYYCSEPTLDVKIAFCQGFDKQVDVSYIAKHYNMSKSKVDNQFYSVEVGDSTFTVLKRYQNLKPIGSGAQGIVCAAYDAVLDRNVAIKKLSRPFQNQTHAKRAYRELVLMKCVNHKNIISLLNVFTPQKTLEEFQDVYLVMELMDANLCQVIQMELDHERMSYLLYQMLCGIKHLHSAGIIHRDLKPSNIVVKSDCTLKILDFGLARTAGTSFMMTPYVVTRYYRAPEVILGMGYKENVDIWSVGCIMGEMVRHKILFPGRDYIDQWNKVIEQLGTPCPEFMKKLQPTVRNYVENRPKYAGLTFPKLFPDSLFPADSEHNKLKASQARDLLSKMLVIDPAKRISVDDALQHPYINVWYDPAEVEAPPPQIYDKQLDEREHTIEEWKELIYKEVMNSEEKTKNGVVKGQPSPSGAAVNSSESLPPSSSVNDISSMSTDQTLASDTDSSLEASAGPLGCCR", "protocol": "as §1, §2"}, "[35]": {"biological_target": "T35, EGFR(h) (Homo sapiens, UniProt P00533)", "T35 construct": "purchased Eurofins (KinaseProfiler platform)", "T35 sequence (P00533 25-1210)": "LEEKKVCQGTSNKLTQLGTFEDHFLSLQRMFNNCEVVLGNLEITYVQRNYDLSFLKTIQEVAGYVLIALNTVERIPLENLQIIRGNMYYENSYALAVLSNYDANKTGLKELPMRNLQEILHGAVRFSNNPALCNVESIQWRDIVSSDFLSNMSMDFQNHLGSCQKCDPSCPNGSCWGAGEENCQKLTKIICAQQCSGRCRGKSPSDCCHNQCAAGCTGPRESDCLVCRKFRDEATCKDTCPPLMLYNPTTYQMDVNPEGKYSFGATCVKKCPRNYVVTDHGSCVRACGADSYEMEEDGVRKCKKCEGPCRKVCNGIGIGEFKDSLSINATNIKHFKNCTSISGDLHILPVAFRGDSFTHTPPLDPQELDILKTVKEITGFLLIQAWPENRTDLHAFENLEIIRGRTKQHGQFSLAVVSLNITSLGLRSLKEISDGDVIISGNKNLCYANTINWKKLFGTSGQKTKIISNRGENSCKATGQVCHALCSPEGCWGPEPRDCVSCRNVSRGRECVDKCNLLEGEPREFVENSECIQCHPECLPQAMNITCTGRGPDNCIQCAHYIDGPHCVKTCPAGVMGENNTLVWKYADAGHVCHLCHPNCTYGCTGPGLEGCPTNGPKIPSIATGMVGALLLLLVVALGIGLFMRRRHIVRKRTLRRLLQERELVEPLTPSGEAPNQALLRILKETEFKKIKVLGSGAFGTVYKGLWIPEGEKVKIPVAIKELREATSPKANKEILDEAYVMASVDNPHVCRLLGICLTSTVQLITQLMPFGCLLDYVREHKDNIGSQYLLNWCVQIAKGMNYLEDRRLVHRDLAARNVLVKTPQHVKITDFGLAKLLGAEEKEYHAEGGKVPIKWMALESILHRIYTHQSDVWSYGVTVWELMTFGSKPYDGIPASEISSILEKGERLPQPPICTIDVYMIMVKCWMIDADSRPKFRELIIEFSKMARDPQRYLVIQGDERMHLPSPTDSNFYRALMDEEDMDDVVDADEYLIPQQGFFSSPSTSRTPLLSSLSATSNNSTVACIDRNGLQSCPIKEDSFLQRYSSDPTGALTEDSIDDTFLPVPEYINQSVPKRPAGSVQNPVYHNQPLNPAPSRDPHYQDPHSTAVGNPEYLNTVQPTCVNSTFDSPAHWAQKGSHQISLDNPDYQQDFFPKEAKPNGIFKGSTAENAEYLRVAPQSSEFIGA", "protocol": "as §1, §2"}, "[36]": {"biological_target": "T36, Yes(h) (Homo sapiens, UniProt P07947)", "T36 construct": "purchased Eurofins (KinaseProfiler platform)", "protocol": "as §1, §2"}, "[37]": {"biological_target": "T37, PKA(h) (Homo sapiens, UniProt P17612)", "T37 construct": "purchased Eurofins (KinaseProfiler service)", "protocol": "as §1, §2"}, "[38]": {"biological_target": "T38, JNK2α2(h) (Homo sapiens, UniProt P45984)", "T38 construct": "purchased Eurofins (KinaseProfiler service)", "protocol": "as §1, §2"}, "[39]": {"biological_target": "T39, Hck(h)activated (Homo sapiens, UniProt P08631)", "T39 construct": "purchased Eurofins (KinaseProfiler service)", "T39 sequence (P08631 whole entry)": "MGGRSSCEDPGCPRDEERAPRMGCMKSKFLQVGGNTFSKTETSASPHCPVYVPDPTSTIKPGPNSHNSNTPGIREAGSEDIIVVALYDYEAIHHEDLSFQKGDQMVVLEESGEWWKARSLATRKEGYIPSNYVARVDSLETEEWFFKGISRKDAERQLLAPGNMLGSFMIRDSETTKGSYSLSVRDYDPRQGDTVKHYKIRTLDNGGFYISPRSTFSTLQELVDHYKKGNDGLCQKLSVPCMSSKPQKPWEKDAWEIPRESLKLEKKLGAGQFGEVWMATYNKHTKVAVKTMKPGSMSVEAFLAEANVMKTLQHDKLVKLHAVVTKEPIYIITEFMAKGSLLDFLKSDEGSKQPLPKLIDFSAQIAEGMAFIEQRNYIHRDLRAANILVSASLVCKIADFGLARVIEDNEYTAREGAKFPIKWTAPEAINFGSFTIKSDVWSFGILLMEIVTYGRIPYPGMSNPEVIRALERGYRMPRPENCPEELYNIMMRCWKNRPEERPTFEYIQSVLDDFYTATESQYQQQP", "protocol": "as §1, §2"}}}
{"compound": "c1cn2c(n1)c(Nc1ccc(N3CCOCC3)cc1)nc1ccc(-c3cn[nH]c3)cc12", "note": "[Compound 1]", "values": [{"measurement": "IC50", "setting": "[1]", "value": 1040, "unit": "nM"}, {"measurement": "IC50", "setting": "[2]", "value": 112, "unit": "nM"}, {"measurement": "IC50", "setting": "[3]", "value": 367, "unit": "nM"}, {"measurement": "IC50", "setting": "[4]", "value": 152, "unit": "nM"}, {"measurement": "IC50", "setting": "[5]", "value": "> 10000", "unit": "nM"}, {"measurement": "IC50", "setting": "[6]", "value": 12, "unit": "nM"}, {"measurement": "IC50", "setting": "[7]", "value": "> 10000", "unit": "nM"}, {"measurement": "IC50", "setting": "[8]", "value": 91, "unit": "nM"}, {"measurement": "IC50", "setting": "[9]", "value": "> 10000", "unit": "nM"}, {"measurement": "IC50", "setting": "[10]", "value": "> 10000", "unit": "nM"}, {"measurement": "IC50", "setting": "[11]", "value": "> 10000", "unit": "nM"}, {"measurement": "IC50", "setting": "[12]", "value": "> 10000", "unit": "nM"}, {"measurement": "IC50", "setting": "[13]", "value": "> 10000", "unit": "nM"}, {"measurement": "IC50", "setting": "[14]", "value": 104, "unit": "nM"}, {"measurement": "IC50", "setting": "[15]", "value": "> 10000", "unit": "nM"}, {"measurement": "IC50", "setting": "[16]", "value": 63, "unit": "nM"}, {"measurement": "IC50", "setting": "[17]", "value": 2840, "unit": "nM"}, {"measurement": "IC50", "setting": "[18]", "value": "> 10000", "unit": "nM"}, {"measurement": "IC50", "setting": "[19]", "value": 827, "unit": "nM"}, {"measurement": "IC50", "setting": "[20]", "value": "> 10000", "unit": "nM"}, {"measurement": "IC50", "setting": "[21]", "value": 946, "unit": "nM"}, {"measurement": "IC50", "setting": "[22]", "value": "> 10000", "unit": "nM"}, {"measurement": "IC50", "setting": "[23]", "value": 2060, "unit": "nM"}, {"measurement": "IC50", "setting": "[24]", "value": "> 10000", "unit": "nM"}, {"measurement": "IC50", "setting": "[25]", "value": 385, "unit": "nM"}, {"measurement": "IC50", "setting": "[26]", "value": "> 10000", "unit": "nM"}, {"measurement": "IC50", "setting": "[27]", "value": "> 10000", "unit": "nM"}, {"measurement": "IC50", "setting": "[28]", "value": 117, "unit": "nM"}, {"measurement": "IC50", "setting": "[29]", "value": "> 10000", "unit": "nM"}, {"measurement": "IC50", "setting": "[30]", "value": 663, "unit": "nM"}, {"measurement": "IC50", "setting": "[31]", "value": 469, "unit": "nM"}, {"measurement": "IC50", "setting": "[32]", "value": "> 10000", "unit": "nM"}, {"measurement": "IC50", "setting": "[33]", "value": 1010, "unit": "nM"}, {"measurement": "IC50", "setting": "[34]", "value": 279, "unit": "nM"}, {"measurement": "IC50", "setting": "[35]", "value": "> 10000", "unit": "nM"}, {"measurement": "IC50", "setting": "[36]", "value": 204, "unit": "nM"}, {"measurement": "IC50", "setting": "[37]", "value": "> 10000", "unit": "nM"}, {"measurement": "IC50", "setting": "[38]", "value": "> 10000", "unit": "nM"}, {"measurement": "IC50", "setting": "[39]", "value": 418, "unit": "nM"}]}
